Measured values reported in the NIST ThermoML archive (doi:10.1016/j.jct.2017.08.028).

Experiment: molar heat capacity at constant pressure
Conditions: 101.33 kPa, Crystal, Small (less than 1 g) adiabatic calorimetry

O[C@H]1[C@H](O)[C@@H](O)[C@H](O)[C@@H](O)[C@H]1O [cis-1,2,3,5-trans-4,6-cyclohexanehexol]
Conditions | molar heat capacity at constant pressure [J/K/mol]
5 K | 0.095
6 K | 0.1967
7 K | 0.3623
8 K | 0.6094
8.37 K | 0.774
8.4 K | 0.78
8.51 K | 0.803
8.64 K | 0.841
8.77 K | 0.885
8.91 K | 0.93
9 K | 0.9596
9.05 K | 0.977
9.2 K | 1.034
9.34 K | 1.096
9.5 K | 1.162
9.65 K | 1.224
9.81 K | 1.296
9.98 K | 1.381
10 K | 1.387
10.17 K | 1.467
10.39 K | 1.577
10.59 K | 1.677
10.81 K | 1.817
11.05 K | 1.945
11.28 K | 2.084
11.52 K | 2.218
11.76 K | 2.363
12 K | 2.535
12.25 K | 2.7
12.5 K | 2.861
12.75 K | 3.034
13.01 K | 3.189
13.27 K | 3.362
13.53 K | 3.524
13.81 K | 3.727
14.08 K | 3.897
14.35 K | 4.078
14.63 K | 4.226
14.91 K | 4.431
15 K | 4.502
15.19 K | 4.618
15.47 K | 4.81
15.75 K | 4.99
16.04 K | 5.208
16.32 K | 5.4
16.61 K | 5.588
16.9 K | 5.795
17.2 K | 5.99
17.49 K | 6.202
17.78 K | 6.394
18.08 K | 6.622
18.37 K | 6.852
18.67 K | 7.06
18.97 K | 7.278
19.27 K | 7.496
19.57 K | 7.721
19.87 K | 7.949
20 K | 8.03
20.46 K | 8.428
21.33 K | 9.104
22.21 K | 9.711
23.1 K | 10.41
24 K | 11.09
24.9 K | 11.77
25 K | 11.83
25.81 K | 12.44
26.73 K | 13.12
27.66 K | 13.84
28.59 K | 14.6
30 K | 15.78
30.38 K | 16.06
31.42 K | 16.86
32.38 K | 17.74
33.35 K | 18.4
34.31 K | 19.3
35 K | 19.73
35.28 K | 20.02
36.25 K | 20.7
37.23 K | 21.47
38.21 K | 22.22
39.19 K | 22.99
40 K | 23.57
40.18 K | 23.66
41.16 K | 24.37
42.15 K | 25.13
43.15 K | 25.81
44.14 K | 26.63
45 K | 27.22
45.14 K | 27.34
46.17 K | 28.07
47.17 K | 28.86
48.17 K | 29.58
49.18 K | 30.39
50 K | 30.99
50.18 K | 31.12
51.2 K | 31.92
53.79 K | 33.97
54.97 K | 34.9
55.99 K | 35.65
57.01 K | 36.49
58.03 K | 37.34
59.05 K | 38.14
60 K | 38.84
60.07 K | 38.87
61.1 K | 39.73
62.12 K | 40.52
63.15 K | 41.35
64.17 K | 42.18
65.2 K | 43.06
66.23 K | 43.91
67.26 K | 44.68
68.29 K | 45.54
69.32 K | 46.48
70 K | 46.97
70.38 K | 47.25
71.85 K | 48.53
73.87 K | 50.14
75.89 K | 51.78
77.91 K | 53.41
78.79 K | 54.18
79.15 K | 54.64
79.8 K | 55.07
80 K | 55.23
80.92 K | 56.01
81.14 K | 56.14
83.15 K | 57.79
85.15 K | 59.59
87.15 K | 61.09
89.15 K | 62.93
90 K | 63.55
91.14 K | 64.62
93.14 K | 66.21
95.13 K | 67.8
97.12 K | 69.47
99.11 K | 71.03
100 K | 71.84
101.58 K | 73.24
104.56 K | 75.65
107.54 K | 78.02
110 K | 80.06
110.53 K | 80.42
113.53 K | 82.88
116.54 K | 85.33
119.54 K | 87.73
120 K | 88.17
122.54 K | 90.16
125.55 K | 92.54
128.56 K | 94.96
130 K | 96.15
131.58 K | 97.38
134.6 K | 99.81
137.62 K | 102.1
140 K | 104
140.65 K | 104.5
143.68 K | 106.9
146.71 K | 109.2
149.74 K | 111.6
150 K | 111.7
152.78 K | 113.9
155.81 K | 116.2
158.85 K | 118.6
160 K | 119.4
161.89 K | 120.9
164.97 K | 123.2
168.01 K | 125.5
170 K | 126.9
171.06 K | 127.7
174.1 K | 130
177.15 K | 132.3
180 K | 134.3
180.2 K | 134.4
183.25 K | 136.7
186.3 K | 138.9
189.35 K | 141.2
190 K | 141.7
192.4 K | 143.5
195.46 K | 145.6
198.52 K | 147.8
200 K | 149.1
201.57 K | 150.1
204.63 K | 152.3
208.19 K | 155.1
210 K | 156.4
212.26 K | 158
216.41 K | 161.2
220 K | 163.7
220.48 K | 164
224.57 K | 167.1
228.65 K | 170.1
230 K | 171.1
232.72 K | 173.2
236.81 K | 176.2
240 K | 178.5
240.91 K | 179.3
245 K | 182.3
249.09 K | 185.2
250 K | 185.9
253.18 K | 188.2
257.27 K | 191.3
260 K | 193.4
261.36 K | 194.4
265.46 K | 197.6
269.55 K | 200.6
270 K | 200.9
273.15 K | 203.2
273.64 K | 203.7
277.73 K | 206.6
280 K | 208.4
281.9 K | 210
285.98 K | 212.8
290 K | 216
290.07 K | 215.9
294.15 K | 219
298.15 K | 222.1
298.22 K | 222
300 K | 223.5
303.01 K | 226
308.39 K | 230
310 K | 231.1
313.76 K | 234
319.12 K | 237.9
320 K | 238.7
324.46 K | 241.9
329.77 K | 246
330 K | 246.2
335.05 K | 250.1
340 K | 253.7
340.3 K | 253.9
